# Values quoted from earlier work, collected in patent publication US10881127B1, “Manufacturing method of water-solubilized solution of mastic resin” (VENN SKINCARE, INC., priority 2019, dated 2021).
# Settings: in room temperature or in water
smiles,measurement,value
O=C1O[C@H]([C@@H](O)CO)C(O)=C1O [L-ascorbic acid],stability of L-ascorbic acid,easily oxidized and broken
